Laboratory results: US20090306386A1, “Plant Extract Obtained by an Extraction Method by Means of Solvents of Plant Origin” (priority 2005, published 2009)

System: xanthine/xanthine oxidase
Assay: antioxidant activity, xanthine/xanthine oxidase test
Format: biochemical
Conditions: modified method of Rice Evans et al. and Masaki et al., n=10
Description: The antioxidant activity of the turmeric extract obtained with solvent No. 2 (d-limonene) were studied using the xanthine/xanthine oxidase test according to the modified method of Rice Evans et al. (Techniques in free radical research, 1991, Elsevier, Paris) and Masaki et al. (Antioxygen scavenging activity of plant extracts, Biol. Pharm. Bull., 1995, 18 (1), 162-166).

`Oc1ncnc2[nH]ncc12` [allopurinol] was tested, and the “antioxidant activity IC50” value was 0.06%.
